{"source": "paper PMC2704374", "about": "“A Multidrug ABC Transporter with a Taste for Salt” (PLoS ONE, 2009)", "biological_target": "T1, LmrCD (Lactococcus cremoris, UniProt A2RI37+A2RI38)", "T1 construct": "gene lmrC", "T1 sequence (A2RI38 entry or part of it)": "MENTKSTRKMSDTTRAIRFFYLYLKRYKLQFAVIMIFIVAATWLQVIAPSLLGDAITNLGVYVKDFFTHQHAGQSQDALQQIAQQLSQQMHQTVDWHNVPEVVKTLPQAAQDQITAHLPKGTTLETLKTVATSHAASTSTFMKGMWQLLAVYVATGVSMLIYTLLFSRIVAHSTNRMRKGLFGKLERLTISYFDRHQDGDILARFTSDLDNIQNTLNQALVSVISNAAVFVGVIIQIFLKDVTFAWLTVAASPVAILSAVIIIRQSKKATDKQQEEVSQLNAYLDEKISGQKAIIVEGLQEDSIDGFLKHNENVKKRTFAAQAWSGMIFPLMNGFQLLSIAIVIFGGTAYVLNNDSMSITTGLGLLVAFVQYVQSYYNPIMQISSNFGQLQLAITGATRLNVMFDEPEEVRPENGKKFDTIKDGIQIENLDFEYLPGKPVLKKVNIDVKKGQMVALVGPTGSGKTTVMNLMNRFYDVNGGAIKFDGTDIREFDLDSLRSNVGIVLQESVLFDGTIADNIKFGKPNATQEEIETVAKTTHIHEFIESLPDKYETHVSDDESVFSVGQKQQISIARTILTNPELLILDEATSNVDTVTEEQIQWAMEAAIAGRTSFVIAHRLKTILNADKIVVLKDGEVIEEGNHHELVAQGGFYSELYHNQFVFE", "T1 sequence (A2RI37 entry or part of it)": "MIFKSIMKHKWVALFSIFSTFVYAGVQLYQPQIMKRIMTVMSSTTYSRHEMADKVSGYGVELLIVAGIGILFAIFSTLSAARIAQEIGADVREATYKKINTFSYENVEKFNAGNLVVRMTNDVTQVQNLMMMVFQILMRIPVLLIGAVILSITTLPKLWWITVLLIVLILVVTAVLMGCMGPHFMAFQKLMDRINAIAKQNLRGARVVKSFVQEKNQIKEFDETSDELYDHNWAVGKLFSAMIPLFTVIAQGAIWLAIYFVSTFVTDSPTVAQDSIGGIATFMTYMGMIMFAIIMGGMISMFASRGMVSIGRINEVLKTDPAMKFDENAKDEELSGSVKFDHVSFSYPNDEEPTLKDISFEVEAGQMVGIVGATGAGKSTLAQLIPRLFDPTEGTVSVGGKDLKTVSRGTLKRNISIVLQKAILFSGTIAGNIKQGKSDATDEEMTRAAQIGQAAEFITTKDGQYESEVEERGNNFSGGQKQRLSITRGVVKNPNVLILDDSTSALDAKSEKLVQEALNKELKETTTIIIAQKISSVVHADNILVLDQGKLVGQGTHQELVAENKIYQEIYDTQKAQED", "experiment": "malachite green ATPase assay", "assay_type": "biochemical", "settings": "2 mM Mg-ATP; 0.05% DDM", "data": [{"smiles": "Nc1ncnc2c1ncn2[C@@H]1O[C@H](COP(=O)(O)OP(=O)(O)OP(=O)(O)O)[C@@H](O)[C@H]1O", "note": "[ATP]", "values": [{"measurement": "malachite green ATPase assay", "result": "the ATPase activity of the purified multidrug ABC transporter LmrCD from L. lactis"}]}]}
